Results reported in patent US20150259344A1, “IMIDAZOLE DERIVATIVE” (DAINIPPON SUMITOMO PHARMA CO., LTD., priority 2012, published 2015).

The compounds below were run against T1, human α7 nAChR (Homo sapiens, UniProt P36544) (assay: Evaluation of PAM activity with human α7 nACh receptor stably expressing cells (aequorin luminescence, FDSS7000)). Settings: 1 μM test compound (values marked *, footnote of Table 25); ACh at EC20; ratio of RLU (Max-Min) to control wells; read-out: α7PAM (%) @1 μM.
T1 construct: expressed in transfected cells
T1 sequence (P36544 23-502): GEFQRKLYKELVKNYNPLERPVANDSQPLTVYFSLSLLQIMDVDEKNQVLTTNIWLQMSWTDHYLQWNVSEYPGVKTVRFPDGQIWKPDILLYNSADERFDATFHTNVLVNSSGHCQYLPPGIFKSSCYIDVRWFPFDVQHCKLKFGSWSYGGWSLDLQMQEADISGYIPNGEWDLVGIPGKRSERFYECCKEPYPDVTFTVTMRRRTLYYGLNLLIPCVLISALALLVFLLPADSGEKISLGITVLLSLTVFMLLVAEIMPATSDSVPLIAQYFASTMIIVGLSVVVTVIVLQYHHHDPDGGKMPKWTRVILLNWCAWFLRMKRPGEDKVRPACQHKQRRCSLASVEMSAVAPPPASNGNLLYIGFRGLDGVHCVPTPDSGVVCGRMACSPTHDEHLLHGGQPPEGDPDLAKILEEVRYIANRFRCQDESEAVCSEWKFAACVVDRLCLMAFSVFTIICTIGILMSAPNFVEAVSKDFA
Type: cell-based
Protocol: Evaluation of PAM activity with human α7 nACh receptor stably expressing cells
(1) Human α7 nAChR stably expressing cells
Human α7 nAChR stably expressing cells were generated and cultured.
Thus, the cells were subcultured.
Seven days after subculturing, the cells were treated with TrypLE Express to collect them when they were about 80% confluent.
On the next day after seeding, Viviren (cat#E649X, Promega, Madison, Wis., USA) was added to the medium so that the final concentration could be 4 μM (15 μL/well). The plates were centrifuged and then placed in the dark for 4 hours at room temperature.
(2) Preparation of the Test Samples
Each of the test compounds was dissolved in DMSO to prepare each test sample at a concentration of 1000-fold the final concentration. To the solution was added Hanks/20 mM HEPES/0.2% BSA (cat#A3803, Sigma, St. Louis, Mo., USA), and the concentration was adjusted to 6-fold the final concentration.
(3) Evaluation of PAM Activity
FDSS7000 (Hamamatsu Photonics) was used to detect the luminescence signal evoked by α7 nAChR stimulation. The cells and a luminescent substrate were put on a plate, and the test sample was added thereto. […] The ratio of the RLU (Max-Min) of the test-compound-containing wells to that of the control wells was defined as PAM activity.

Structure (SMILES)	activity at 1 µM
N#Cc1c(-c2cccc(F)c2F)ncn1[C@@H]1C[C@H]2CC[C@@H](C1)N2C(=O)C1CCC(F)(F)CC1 [Example 463]	181%
CC(C)(F)C(=O)N[C@H]1CC[C@@H](n2cnc(-c3cc(F)c(Cl)cc3F)c2)CC1 [Example 316]	267%
CC(C)(F)C(=O)N[C@H]1CC[C@@H](n2cnc(-c3cc(OC(F)(F)F)ccc3F)c2Cl)CC1 [Example 328]	859%
CC(C)(F)C(=O)N[C@H]1CC[C@@H](n2cnc(-c3ccc(F)c(OC(F)(F)F)c3)c2C#N)CC1 [Example 350]	670%
N#Cc1c(-c2cc(F)ccc2F)ncn1[C@H]1C[C@H]2CC[C@@H](C1)N2C(=O)NC1CCC(F)(F)CC1 [Example 403]	590%
O=C(C1CCC(F)(F)CC1)N1[C@@H]2CC[C@H]1C[C@H](n1cnc(-c3cc(F)ccc3F)c1)C2 [Example 451]	143%

Same assay, conditions: 10 μM test compound; ACh at EC20; ratio of RLU (Max-Min) to control wells

α7PAM (%) @10 μM	Structure (SMILES)
330%	O=C(NC1CCCCC1)N1CCC(n2cnc(-c3cccs3)c2)CC1 [Example 129]
424%	CC(C)(F)C(=O)N[C@H]1CC[C@@H](n2cnc(-c3ccc(F)cc3)c2)CC1 [Example 277]

Same assay, conditions: 10 μM test compound; ACh at EC20; ratio of RLU (Max-Min) to control wells; read-out: α7PAM (%) @10 μM

activity at 10 µM	Structure (SMILES)
363%	O=C(C1CCC(F)(F)CC1)N1CCC(n2cnc(-c3cccc(OC(F)F)c3)c2)CC1 [Example 145]
454%	O=C(N[C@H]1CC[C@@H](n2cnc(-c3ccccc3)c2Cl)CC1)C1CCC(F)(F)CC1 [Example 169]
375%	COc1ccc(-c2ncn([C@H]3CC[C@@H](NC(=O)C4CCCC4)CC3)c2Cl)cc1Cl [Example 180]
290%	CC(C)(F)C(=O)N[C@H]1CC[C@@H](n2cnc(-c3cc(OC(F)(F)F)ccc3F)c2C#N)CC1 [Example 349]
175%	O=C(NC1CCOCC1)N1CCC(n2cnc(-c3cccc(F)c3)c2)CC1 [Example 244]
457%	CC(C)(C)NC(=O)N1CCC(n2cnc(-c3ccccc3)c2C2CC2)CC1 [Example 109]
399%	O=C(C1CCC(F)(F)CC1)N1CCC(n2cnc(-c3ccc(F)cc3)c2)CC1 [Example 261]
426%	N#Cc1c(-c2cc(F)cc(F)c2)ncn1[C@H]1CC[C@@H](C(=O)NC2CCOCC2)CC1 [Example 376]
220%	CO[C@H]1CC[C@H](NC(=O)N2CCC(n3cnc(-c4ccc(C(F)(F)F)cc4)c3)CC2)CC1 [Example 4, N-(trans-4-Methoxycyclohexyl)-4-{4-[4-(trifluoromethyl)phenyl]-1H-imidazol-1-yl}piperidine-1-carboxamide]
172%	O=C(N[C@H]1CC[C@H](n2cnc(-c3ccccc3)c2)CC1)C1CCCCC1 [Example 204]
581%	O=C(N[C@H]1CC[C@@H](n2cnc(-c3ccccc3)c2Cl)CC1)C1CC(F)(F)C1 [Example 188]
493%	O=C(N[C@H]1CC[C@H](C(F)(F)F)CC1)N1CCC(n2cnc(-c3cccc(F)c3)c2)CC1 [Example 3, 4-[4-(3-Fluorophenyl)-1H-imidazol-1-yl]-N-[trans-4-(trifluoromethyl)cyclohexyl]piperidine-1-carboxamide]
725%	N#Cc1c(-c2ccccc2)ncn1C1CCN(C(=O)C2CC(F)(F)C2)CC1 [Example 268]
351%	N#Cc1c(-c2cc(F)ccc2F)ncn1C1CCN(C(=O)C2CCC(F)(F)CC2)CC1 [Example 274]
828%	CC(C)(F)C(=O)N[C@H]1CC[C@@H](n2cnc(-c3cc(F)ccc3F)c2)CC1 [Example 301]
597%	O=C(C1CCC(F)(F)CC1)N1CCC(n2cnc(-c3ccc(C(F)(F)F)cc3)c2)CC1 [Example 138]
538%	N#Cc1c(-c2ccccc2)ncn1C1CCN(C(=O)C2CCCCC2)CC1 [Example 153]

activity at 10 µM	Structure (SMILES)
291%	O=C(Nc1ccccc1F)N1CCC(n2cnc(-c3ccc(Cl)cc3)c2)CC1 [Example 21]
377%	Cc1c(-c2ccc(F)cc2)ncn1[C@H]1CC[C@@H](C(=O)NC2CCOCC2)CC1 [Example 381]
522%	N#Cc1c(-c2ccccc2F)ncn1C1CCN(C(=O)C2CCC(F)(F)CC2)CC1 [Example 156, 1-{1-[(4,4-difluorocyclohexyl)carbonyl]piperidin-4-yl}-4-(2-fluorophenyl)-1H-imidazole-5-carbonitrile]
452%	N#Cc1c(-c2cccc(F)c2)ncn1C1CCN(C(=O)C2CC(F)(F)C2)CC1 [Example 269]
576%	CC(C)(F)C(=O)N[C@H]1CC[C@@H](n2cnc(-c3ccccc3F)c2Cl)CC1 [Example 185]
869%	COc1ccc(-c2cn([C@H]3CC[C@@H](NC(=O)C(C)(C)F)CC3)cn2)cc1 [Example 285]
981%	O=C(NC1CCOCC1)N1CCC(n2cnc(-c3cccc(C(F)(F)F)c3)c2Cl)CC1 [Example 94, 4-{5-chloro-4-[3-(trifluoromethyl)phenyl]-1H-imidazol-1-yl}-N-(tetrahydro-2H-pyran-4-yl)piperidine-1-carboxamide]
328%	O=C(NC1CCC(F)(F)CC1)N1CCC(n2cnc(-c3ccccn3)c2Cl)CC1 [Example 137]
484%	CCOc1ccc(-c2cn(C3CCN(C(=O)C4CCC(F)(F)CC4)CC3)cn2)cc1 [Example 147]
366%	O=C(NC1CCCCC1)N1CCC(n2cnc(-c3ccccc3)c2)CC1 [Example 37]
346%	O=C(C1CCC(F)(F)CC1)N1CCC(n2cnc(-c3cccc(F)c3)c2)CC1 [Example 144]
707%	O=C(NC1CCC(F)(F)CC1)N1CCC(n2cnc(-c3cccc(OC(F)F)c3)c2)CC1 [Example 59]
945%	O=C(C1CCC(F)(F)CC1)N1CCC(n2cnc(-c3ccccc3)c2Cl)CC1 [Example 152]
220%	CC(C)(F)C(=O)N[C@H]1CC[C@@H](n2cnc(-c3ccccc3OC(F)(F)F)c2C#N)CC1 [Example 344]
540%	Cc1c(-c2ccc(F)cc2)ncn1[C@H]1CC[C@@H](NC(=O)C(C)(C)F)CC1 [Example 351]
328%	COc1cc(F)c(-c2cn([C@H]3CC[C@@H](NC(=O)C(C)(C)F)CC3)cn2)cc1F [Example 319]
274%	O=C(C1CCC(F)(F)CC1)N1CCC(n2cnc(-c3ccc(F)c(F)c3)c2)CC1 [Example 139]

Structure (SMILES)	activity at 10 µM
O=C(C1CCC(F)(F)CC1)N1[C@@H]2CC[C@H]1C[C@@H](n1cnc(-c3ccc(F)cc3)c1Cl)C2 [Example 431]	836%
N#Cc1c(-c2cccc(F)c2F)ncn1[C@H]1C[C@H]2CC[C@@H](C1)N2C(=O)C1CCC(F)(F)CC1 [Example 445]	272%
O=C(C1CCC(F)(F)CC1)N1[C@@H]2CC[C@H]1C[C@H](n1cnc(-c3ccccc3)c1)C2 [Example 449]	183%
N#Cc1c(-c2cccc(F)c2F)ncn1[C@H]1C[C@H]2CC[C@@H](C1)N2C(=O)NC1CCC(F)(F)CC1 [Example 404]	292%
O=C(NC1CCCCC1)N1[C@@H]2CC[C@H]1C[C@H](n1cnc(-c3cccc(F)c3F)c1)C2 [Example 410]	197%

Same assay, conditions: comparison across Tables 18 to 25

PAM activity for α7 nAChR (in words)	Structure (SMILES)
stronger PAM activity than others	O=C(NC1CCOCC1)N1CCC(n2cnc(-c3ccc(C(F)(F)F)cc3)c2Cl)CC1 [Example 93]
stronger PAM activity than others	O=C(NC1CCC(F)(F)CC1)N1CCC(n2cnc(-c3ccc(C(F)(F)F)cc3)c2)CC1 [Example 25]
